One data set has as its system NCI-H929 cells. The experiment in a line: NCI-H929 proliferation experiment (CellTiter-Glo, 5 days). Format: cell-based. The note with it: Homo sapiens, 120 h, 5 days incubation, read-out: IC50 values for the inhibition of proliferation of NCI-H929 cells. The method, then:
The following method was used to determine the inhibitory activity of the compounds of the present disclosure on the proliferation of NCI-H929 cells. The experimental method was briefly described as follows.
NCI-H929 cells (ATCC, CRL-9068) were cultured in a complete medium (RPMI 1640 medium (Hyclone, SH30809.01) containing 10% fetal bovine serum (Corning, 35-076-CV) and 0.05 mM 2-mercaptoethanol (Sigma, M3148)). On the first day of the experiment, NCI-H929 cells were seeded in a 96-well plate at a density of 6000 cells/well with a complete medium to form 100 μL of cell suspension per well, and 10 μL of test compound prepared in a complete medium and diluted in a gradient was added to each well. The compound was firstly dissolved in DMSO, with an initial concentration of 10 mM, and then subjected to serial dilution at a 5-fold concentration gradient for a total of 9 concentration points, with a blank control of 100% DMSO. Another 5 μL of the compound dissolved in DMSO was added to 95 μL of complete medium, i.e., the compound was diluted 20-fold with the complete medium. Finally the compound diluted in the complete medium at 10 μL/well was added to the cell suspension, wherein the final concentrations of the compound were 9 concentration points obtained by 5-fold gradient dilution starting from 50 μM. A blank control containing 0.5% DMSO was set. The plate was incubated in a cell incubator at 37° C. with 5% CO2 for 5 days. On the sixth day, the 96-well cell culture plate was taken out, added with a CellTiter-Glo® luminescent cell activity detect reagent (Promega, G7573) at 50 μL/well, left to stand at room temperature for 10 min, and read for the luminescence signal values using a multi-mode microplate reader (PerkinElmer, EnVision 2015). IC50 values for the inhibitory activity of the compounds were calculated using Graphpad Prism software, with the results shown in Table 1.

Data set [1] in a line: Pharmacokinetic evaluation in mice after intragastric administration (LC/MS/MS). Format: in vivo. The note with it: female, mouse, plasma, po, mice, intragastric, 2 mg/kg. How it is done: The drug concentration in the plasma of the test animals (mice) at different time points after intragastric administration of the compound of Example 6 and the control example CC-92480 was determined by an LC/MS/MS method. The pharmacokinetic behavior of the compound of the present disclosure in mice was studied and its pharmacokinetic profile was evaluated.
Compound of Example 6 and control example CC-92480.
Eighteen mice, female, purchased from Beijing Vital River Laboratory Animal Technology Co., Ltd., with animal production license number of SCXK (Shanghai) 2017-0005.
A certain amount of compound of Example 6 was weighed, dissolved by adding 5% by volume of DMSO and 5% Tween 80 (Shanghai Titan Scientific Co., Ltd.), and then prepared into a 0.1 mg/mL clear solution by adding 90% normal saline.
A certain amount of the control example CC-92480 was weighed, dissolved by adding 5% by volume of DMSO and 5% Tween 80 (Shanghai Titan Scientific Co., Ltd.), and then prepared into a 0.1 mg/mL clear solution by adding 90% normal saline.
Nine mice were intragastrically administered with the compound of Example 6 at a dose of 2 mg/kg and at a volume of 0.2 mL/10 g.
Nine mice were intragastrically administered with the control example CC-92480 at a dose of 2 mg/kg and at a volume of 0.2 mL/10 g.
Mice were intragastrically administered with the compound of Example 6 and the control example CC-92480, and 0.2 mL of blood was collected before the administration and 0.25 h, 0.5 h, 1.0 h, 2.0 h, 4.0 h, 6.0 h, 8.0 h, 11.0 h and 24.0 h after the administration (3 animals at each time point), placed in EDTA-K2 anticoagulation tubes, and centrifuged at 10,000 rpm for 1 min(4° C.). Plasma was separated within 1 h, and stored at −20° C. for testing. The process from blood collection to centrifugation was performed under an ice bath.
The content of the test compounds at different concentrations in mouse plasma after the administration was determined: 25 μL of mouse plasma at each time point after the administration was mixed with 50 μL (100 ng/mL) of internal standard solution camptothecin (National Institutes for Drug Control) and 175 μL of acetonitrile. The mixture was vortexed for 5 min and centrifuged for 10 min (3700 rpm/min), and 1 μL of the supernatant of the plasma sample was taken for LC/MS/MS assay (API4000 triple quadrupole tandem mass spectrometer, Applied Biosystems, USA; Shimadzu, LC-30AD ultra high performance liquid chromatography system, Shimadzu, Japan).

Broadly, the AUC is concentration integrated over time. As usually defined, the half-life is the time in which the quantity being followed falls by half. A word on the MRT: it is the average time that molecules of a dose stay in the body.

With `N#Cc1ccc(N2CCC(Sc3ccc(COc4cccc5c4CN([C@H]4CCC(=O)NC4=O)C5=O)cn3)CC2)c(F)c1` [Compound 6, (S)-4-(4-((5-(((2-(2,6-dioxopiperidin-3-yl)-1-oxoisoindolin-4-yl)oxy)methyl)pyridin-2-yl)thio)piperidin-1-yl)-3-fluorobenzonitrile], the IC50 in the data set on NCI-H929 cells was found to be 0.02 nM. The Vd/F in data set [1] (read-out: Apparent volume of distribution Vz/F) was 1.79 L/kg. Besides, the AUC in data set [1] (read-out: Area under curve AUC) stood at 4690 ng·h/mL. Moreover, the CL/F in data set [1] (read-out: Clearance CL/F) was determined as 7.1 mL/min/kg. Further, the half-life in data set [1] (read-out: Half-life T½ (converted)) is 2.9 h. In addition, the Cmax in data set [1] (read-out: Plasma concentration Cmax) was 799 ng/mL. For the same molecule, in data set [1] (read-out: Residence time MRT), the mean residence time (MRT) came to 4.6 h.

Values taken from US20230257366A1, “SULFUR-CONTAINING ISOINDOLINE DERIVATIVE, AND PREPARATION METHOD THEREFOR AND MEDICAL USE THEREOF” (JIANGSU HENGRUI PHARMACEUTICALS CO., LTD., priority 2020, published 2023).
